Read-outs that look alike come from different tables or passages of the source.
Legend:
MMP-13 = MMP-13 (Homo sapiens, UniProt P45452); experiment: MMP-13 inhibition (thiopeptide or fluorescent peptide substrate); type: biochemical
Method: (§1) The enzyme activity is measured by the rate of the color increase. The thiopeptide substrate is made up fresh as a 20 mM stock in 100% DMSO and the DTNB is dissolved in 100% DMSO as a 100 mM stock and stored in the dark at room temperature. Both the substrate and DTNB are diluted together to 1 mM with substrate buffer (50 mM HEPES pH 7.5, 5 mM CaCl2) before use. The stock of enzyme is diluted with buffer (50 mM HEPES, pH 7.5, 5 mM CaCl2, 0.02% Brij) to the desired final concentration.
(§2) Alternatively, a fluorescent peptide substrate is used. In this test procedure, the peptide substrate contains a fluorescent group and a quenching group. Upon cleavage of the substrate by an MMP, the fluorescence that is generated is quantitated on the fluorescence plate reader. The assay is run in HCBC assay buffer (50mM HEPES, pH 7.0, 5 mM Ca^+2, 0.02% Brij, 0.5% Cysteine), with human recombinant MMP-1, MMP-9, or MMP-13. The substrate is dissolved in methanol and stored frozen in 1 mM aliquots. For the assay, substrate and enzymes are diluted in HCBC buffer to the desired concentrations. Compounds are added to the 96 well plate containing enzyme and the reaction is started by the addition of substrate.
(§3) For either the thiopeptide or fluorescent peptide test procedures, the slope of the line is calculated and represents the reaction rate. The linearity of the reaction rate is confirmed (r^2 >0.85).

[1] = target: TNF-α converting enzyme (TACE) (Homo sapiens, UniProt P78536); experiment: TACE inhibition (fluorescent peptidyl substrate); type: biochemical
Method: Using 96-well black microtiter plates, each well receives a solution composed of 10 µL TACE (final concentration 1µg/mL), 70µL Tris buffer, pH 7.4 containing 10% glycerol (final concentration 10 mM), and 10 µL of test compound solution in DMSO (final concentration 1µM, DMSO concentration <1%) and incubated for 10 minutes at room temperature.
The reaction is read (excitation 340 nm, emission 420 nm) for 10 min. and the increase in fluorescence over time is plotted as a linear line. The slope of the line is calculated and represents the reaction rate.
The linearity of the reaction rate is confirmed (r^2 >0.85). The mean (x±em) of the control rate is calculated and compared for statistical significance (p<0.05) with drug-treated rates using Dunnett's multiple comparison test.

THP-1 cells = experiment: THP-1 soluble protein assay (human monocytic THP-1 cell differentiation assay); type: cell-based; details: read-out: THP % inhibition at 3µM, LPS-stimulated THP-1 cells
Source text: Mitogenic stimulation of THP-1 cells cause differentiation into macrophage like cells with concomitant secretion of tumor necrosis factor (TNF-•) and TNF receptor (TNF-R p75/80 and TNF-R p55/60) and Interleukin-8 (IL-8), among other proteins. In addition, non-stimulated THP-1 cells shed both the p75/80 and the p55/60 receptors over time. […] THP-1 cells (from ATCC) are a human monocytic cell line which were obtained from the peripheral blood of a person with acute monocytic leukemia. They can be grown in culture and differentiated into macrophage like cells by stimulation with mitogens. For the assay, THP-1 cells are seeded from an ATCC stock which was previously grown and frozen back at 5 x 10^6/ml/vial. […] Each vial of cells are cultured for about two weeks prior to being used for an assay and then are used for only 4 to 6 weeks to screen compounds. Cells are subcultured on Mondays and Thursdays to a concentration of 1 x 10^5/ml. […] At the same time, […] of drug, vehicle or THP-1 media is plated in appropriate wells to give a final volume of 1.2 ml/well. […] Cell exposure to DMSO was limited to 0.1 % final concentration. Positive control wells were included in the experiment which had mitogen added but no drug. Vehicle control wells were included as well, which were identical to the positive control wells, except that DMSO was added to give a final concentration of 0.083%. Negative control wells were included in the experiment which had vehicle but no mitogen or drug added to the cells. Compounds can be evaluated for their effect on basal (non-stimulated) shedding of the receptors by replacing the LPS with […] of THP-1 media. Plates are placed into an incubator set at 5% CO2 and at 37 °C. After 4 hours of incubation, […] of tissue culture supernatant (TCS) is removed for use in an TNF-α ELISA. Following 24 hours of incubation, […] of TCS is removed and used for analysis in TNF-R p75/80, TNF-R p55/60 and IL-8 ELISAs. In addition, at the 24 hours timepoint, and the cells for each treatment group are collected by resuspension in 500 µl/well of THP-1 media and transferred into a FACS tube. Two ml/tube of a 0.5 mg/ml stock of propidium iodide (PI) (Boerhinger Mannheim cat. # 1348639) is added. The samples are run on a Becton Dickinson FaxCaliber FLOW cytometry machine and the amount of dye taken up by each cell is measured in the high red wavelength (FL3). Only cells with compromised membranes (dead or dying) can take up PI. The percent of live cells is calculated by the number of cells not stained with PI, divided by the total number of cells in the sample. The viability values calculated for the drug treated groups were compared to the viability value calculated for the vehicle treated mitogen stimulated group ("vehicle positive control") to determine the "percent change from control". This "percent change from control" value is an indicator of drug toxicity. The quantity of soluble TNF-α, TNF-R p75/80 and TNF-R p55/60 and IL-8 in the TCS of the THP-1 cell cultures are obtained with commercially available ELISAs from R&D Systems, by extrapolation from a standard curve generated with kit standards. The number of cells that either take up or exclude PI are measured by the FLOW cytometry machine and visualized by histograms using commercially available Cytologic software for each treatment group including all controls. […]

MMP-9 = MMP-9 (Homo sapiens, UniProt P14780); experiment: MMP-9 inhibition (thiopeptide or fluorescent peptide substrate); type: biochemical
MMP-9, sequence (P14780 94-707): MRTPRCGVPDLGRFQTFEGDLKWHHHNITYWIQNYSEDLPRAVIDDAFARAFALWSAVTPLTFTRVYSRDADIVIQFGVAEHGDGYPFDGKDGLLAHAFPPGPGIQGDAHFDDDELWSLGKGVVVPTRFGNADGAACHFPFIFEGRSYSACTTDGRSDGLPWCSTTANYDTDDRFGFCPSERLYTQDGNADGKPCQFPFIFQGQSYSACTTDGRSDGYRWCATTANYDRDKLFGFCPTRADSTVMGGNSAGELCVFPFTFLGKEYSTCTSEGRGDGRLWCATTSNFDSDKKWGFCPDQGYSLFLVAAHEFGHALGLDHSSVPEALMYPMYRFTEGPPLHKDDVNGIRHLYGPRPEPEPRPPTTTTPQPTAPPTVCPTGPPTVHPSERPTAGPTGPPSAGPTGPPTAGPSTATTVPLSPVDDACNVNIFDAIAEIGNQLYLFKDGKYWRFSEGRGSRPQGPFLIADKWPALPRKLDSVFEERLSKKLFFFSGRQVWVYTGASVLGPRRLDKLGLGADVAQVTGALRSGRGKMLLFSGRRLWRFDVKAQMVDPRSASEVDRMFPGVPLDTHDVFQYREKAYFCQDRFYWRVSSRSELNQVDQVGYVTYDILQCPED
Method: as §1, §2, §3

TNF-α converting enzyme (TACE), sequence (P78536 215-824, species assumed): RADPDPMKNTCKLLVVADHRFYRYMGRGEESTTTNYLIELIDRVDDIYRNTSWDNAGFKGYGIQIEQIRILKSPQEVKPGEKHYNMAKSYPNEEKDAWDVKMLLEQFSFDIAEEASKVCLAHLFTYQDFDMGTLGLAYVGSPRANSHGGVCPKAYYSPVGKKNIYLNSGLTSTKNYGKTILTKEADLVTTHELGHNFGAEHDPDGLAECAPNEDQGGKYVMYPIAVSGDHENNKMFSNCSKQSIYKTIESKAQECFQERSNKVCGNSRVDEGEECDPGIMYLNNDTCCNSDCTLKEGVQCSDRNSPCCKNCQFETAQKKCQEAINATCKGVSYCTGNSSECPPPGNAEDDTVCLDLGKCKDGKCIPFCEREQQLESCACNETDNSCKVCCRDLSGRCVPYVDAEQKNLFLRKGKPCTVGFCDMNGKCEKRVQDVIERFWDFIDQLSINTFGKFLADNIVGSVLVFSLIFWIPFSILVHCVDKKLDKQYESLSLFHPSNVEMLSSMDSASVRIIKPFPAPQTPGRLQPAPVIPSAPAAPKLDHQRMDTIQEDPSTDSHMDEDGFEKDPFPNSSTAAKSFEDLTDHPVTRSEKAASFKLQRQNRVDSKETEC

Q: How did the IC50 (MMP-13) turn out when `CC#CCOc1ccc(S(=O)(=O)N(C)c2c(C(=O)NO)cnc3onc(C)c23)cc1` [Example 9, 4-[(4-But-2-ynyloxy-benzenesulfonyl)-methyl-amino]-3-methyl-isoxazolo[5,4-b]pyridine-5-carboxylic acid hydroxyamide] was run?
A: 150 nM

Q: And the IC50 [1]?
A: 5.9 nM

Q: And the inhibition at 3 µM (THP-1 cells)?
A: 57%

Q: What about the IC50 (MMP-9) of the same molecule?
A: 244 nM

Q: How did the IC50 [1] turn out when `CC#CCOc1ccc(S(=O)(=O)N(C)c2c(C(=O)NO)cnc3c2c(C)nn3C)cc1` [Example 7, 4-[(4-But-2-ynyloxy-benzenesulfonyl)-methyl-amino]-1,3-dimethyl-1H-pyrazolo[3,4-b]pyridine-5-carboxylic acid hydroxyamide] was run?
A: 30 nM

Q: And the inhibition at 3 µM (THP-1 cells)?
A: 60%

Q: What about the IC50 (MMP-9) of the same molecule?
A: 116 nM

Q: Which results are given for `CC#CCOc1ccc(S(=O)(=O)N(C)c2c(C(=O)NO)cnc3snc(C)c23)cc1` [Example 13, 4-[(4-But-2-ynyloxy-benzenesulfonyl)-methyl-amino]-3-methyl-isothiazolo[5,4-b]pyridine-5-carboxylic acid hydroxyamide]?
A: IC50 (MMP-13): 34 nM; IC50 [1]: 14 nM; inhibition at 3 µM (THP-1 cells): 42%; IC50 (MMP-9): 95 nM

Q: How did the IC50 (MMP-13; read-out: MMP-13 IC50) turn out when `CC#CCOc1ccc(S(=O)(=O)N(C)c2c(C(=O)NO)cnc3c(OC)cccc23)cc1` [Example 11, 4-[(4-But-2-ynyloxy-benzenesulfonyl)-methyl-amino]-8-methoxy-quinoline-3-carboxylic acid hydroxyamide] was run?
A: 9.2 nM

Q: What about the IC50 [1] of the same molecule?
A: 17 nM

Q: And the inhibition at 3 µM (THP-1 cells)?
A: 58%

Q: And the IC50 (MMP-9)?
A: 33 nM

Q: With `CC#CCOc1ccc(S(=O)(=O)N(C)c2c(C(=O)NO)cnc3c(Br)cccc23)cc1` [Example 99, 8-Bromo-4-[{[4-(2-butynyloxy)phenyl]sulfonyl} (methyl)amino]-N-hydroxy-3-quinolinecarboxamide] as the molecule, how does the IC50 (MMP-13; read-out: MMP-13 IC50) read?
A: 27 nM

Q: What about the IC50 ([1]; read-out: TACE IC50) of the same molecule?
A: 82 nM

Q: And the inhibition at 3 µM (THP-1 cells)?
A: 32%

From EP1157024B1, “ACETYLENIC ORTHO-SULFONAMIDO AND PHOSPHINIC ACID AMIDO BICYCLIC HETEROARYL HYDROXAMIC ACIDS AS TACE INHIBITORS” (American Cyanamid Company, priority 1999, dated 2000)
